Experimental data taken from publication PMC7269146, “Jingzhaotoxin-X, a gating modifier of Kv4.2 and Kv4.3 potassium channels purified from the venom of the Chinese tarantula Chilobrachys jingzhao” (The Journal of Venomous Animals and Toxins Including …, 2020).
Where a SMILES comes first, the peptide text is derived from it. Bridges are numbered along the chain shown (N, C = ends).

Legend:
LVA Cav channels = assay: whole-cell voltage-clamp, LVA Cav currents of rat DRG neurons; format: cell-based; conditions: 10 μM, n = 3
Kv4.2 = target: T1, Kv4.2 (Rattus norvegicus, UniProt Q63881); assay: kinetic constants of JZTX-X at Kv4.2 channel (wash-in / wash-out); format: cell-based; conditions: test conc. 0.2 μM, n = 6
T1 construct: expressed in transfected cells; host or cells: HEK293t
T1 sequence (Q63881 1-630): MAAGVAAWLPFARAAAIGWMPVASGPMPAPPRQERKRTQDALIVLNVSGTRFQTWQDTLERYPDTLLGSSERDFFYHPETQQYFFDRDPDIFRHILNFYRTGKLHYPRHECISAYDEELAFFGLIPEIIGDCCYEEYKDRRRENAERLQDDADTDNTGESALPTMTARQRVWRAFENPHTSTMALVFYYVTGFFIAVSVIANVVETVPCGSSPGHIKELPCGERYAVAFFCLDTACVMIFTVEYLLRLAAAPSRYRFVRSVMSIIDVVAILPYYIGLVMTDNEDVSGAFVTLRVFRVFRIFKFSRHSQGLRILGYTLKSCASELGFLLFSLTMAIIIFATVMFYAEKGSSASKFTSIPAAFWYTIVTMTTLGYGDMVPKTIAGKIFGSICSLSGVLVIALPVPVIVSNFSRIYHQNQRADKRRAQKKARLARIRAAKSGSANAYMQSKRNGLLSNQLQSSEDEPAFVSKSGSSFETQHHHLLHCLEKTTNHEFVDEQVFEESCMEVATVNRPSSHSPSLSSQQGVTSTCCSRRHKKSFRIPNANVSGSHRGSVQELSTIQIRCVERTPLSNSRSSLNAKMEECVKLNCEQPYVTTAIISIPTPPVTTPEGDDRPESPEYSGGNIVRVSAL
Excerpt: Rat cDNA genes encoding Kv4.2 (Accession: NM_031730.2) and Kv4.3 (Accession: AB003587.1) were subcloned to vector pcDNA3.1. In addition, human cDNA genes encoding Nav1.7 (Accession: DQ857292.1) and Nav1.5 (Accession: AB158469.2) were subcloned to vectors pcDNA3.1-mod and pcDNA3.1, separately. Then, Kv4.2, Kv4.3, Nav1.5 and Nav1.7 constructs were transiently transfected into the human embryonic kidney 293t (HEK293t) cells using lipofectamine 2000 (Invitrogen, USA) in accordance with manufacturer protocols. Thereafter, HEK293 cells were inoculated within Dulbecco’s modified Eagle’s medium (DMEM) containing 10% fetal bovine serum (FBS) at 5% CO2 and 37°C. The Kv4.3 channel and the Kv4.2 counterpart were then transfected in the absence of β subunit. Subsequently, cells were incubated with a DNA-lipofectamine mixture (one reporter plasmid for green fluorescence protein and channel constructs) for 4-6 h, and were washed with the fresh medium.
An EPC-10 patch-clamp amplifier (HEKA, Germany) was employed to record the potassium currents at the configuration of whole-cell patch-clamp under an ambient temperature of 22-25°C. The resistance was 2.0-3.0 MΩ when the recording pipette contained a full volume of internal solution (supplemented with 140 mM KCl, 10 mM HEPES, 2.5 mM MgCl2, 5 mM ATP and 11 mM EGTA). KOH was utilized to adjust the pH to 7.2, while sucrose was employed to adjust the osmolarity to 310 mOsm/L. The culture medium was replaced with an external solution containing 150 mM NaCl, 2.5 mM CaCl2, 10 mM HEPES, 2 mM MgCl2, 5 mM KCl, and 10 mM D-glucose. Similarly, sucrose and NaOH were applied to adjust the osmolarity to 330 mOsm/L and pH to 7.4. […] The series resistance was maintained at about 5 MΩ, with 65-70% compensation. Finally, the leakage currents and linear capacitance were subtracted digitally according to the P/4 protocol.
As for kinetic calculations, curves as a function of peak currents vs. time were plotted from the toxin wash-out or wash-in moments. The software Sigmaplot 9.0 (Sigma, USA) was utilized to fit data to the first-order exponential equation. […]

CC(C)C[C@@H]1NC(=O)[C@H](CCCCN)NC(=O)[C@H](Cc2ccc(O)cc2)NC(=O)[C@@H]2CSSC[C@@H]3NC(=O)[C@H](Cc4ccc(O)cc4)NC(=O)[C@H](Cc4ccccc4)NC(=O)CNC(=O)[C@H](C)NC(=O)[C@H](CSSC[C@H](NC(=O)[C@@H](N)CC(C)C)C(=O)N[C@@H](CO)C(=O)N[C@@H](CCCNC(=N)N)C(=O)N[C@@H](CCC(=O)O)C(=O)NCC(=O)N[C@@H](CCC(=O)O)C(=O)N[C@@H](Cc4ccccc4)C(=O)N2)NC(=O)[C@H](CSSC[C@@H](C(=O)N[C@@H](Cc2ccc(O)cc2)C(=O)N[C@@H](CCCNC(=N)N)C(=O)N[C@@H](CC(N)=O)C(=O)O)NC(=O)[C@H](Cc2c[nH]cn2)NC(=O)[C@H](CC(C)C)NC(=O)[C@H](C(C)C)NC(=O)[C@H](Cc2ccccc2)NC(=O)[C@H](C)NC(=O)[C@H](CCCCN)NC3=O)NC(=O)[C@H](CCCCN)NC(=O)[C@H](CCCNC(=N)N)NC1=O [JZTX-X, Jingzhaotoxin-X] (H-LCSREGEFCYKLRKCCAGFYCKAFVLHCYRN-OH; disulfide 2-16, 9-21, 15-28; N-terminus assumed)
inhibition of LVA Cav current (LVA Cav channels): less than 5% | kmod, Kv4.2 channel (Kv4.2; inverse of τ of toxin wash-in): 0.089 ± 0.007 s⁻¹ | koff (Kv4.2; inverse of τ of toxin wash-out): 0.008 ± 0.0006 s⁻¹ | Kd (kinetic dissociation constant) (Kv4.2; method text: Kd = koff / kon, read-out: ki, Kv4.2 channel): 95 ± 30 nM
